Data reported in patent US11584745B2, “Aromatic heterocyclic compound, intermediate thereof, preparation method therefor, and pharmaceutical composition and use thereof” (SHANGHAI YINGLI PHARMACEUTICAL CO., LTD, priority 2018, dated 2023).

biological target: ALK5 (Homo sapiens (Human), UniProt P36897); assay: Evaluation experiment of ALK5 enzyme activity inhibition IC50 (ADP-Glo kinase assay); assay type: biochemical; details: 25 nM ALK5, 0.1 mg/mL peptide TGFbR1, 7 μM ATP, 30° C. 1 hour, ADP-Glo luminescence
Sequence (P36897 34-503): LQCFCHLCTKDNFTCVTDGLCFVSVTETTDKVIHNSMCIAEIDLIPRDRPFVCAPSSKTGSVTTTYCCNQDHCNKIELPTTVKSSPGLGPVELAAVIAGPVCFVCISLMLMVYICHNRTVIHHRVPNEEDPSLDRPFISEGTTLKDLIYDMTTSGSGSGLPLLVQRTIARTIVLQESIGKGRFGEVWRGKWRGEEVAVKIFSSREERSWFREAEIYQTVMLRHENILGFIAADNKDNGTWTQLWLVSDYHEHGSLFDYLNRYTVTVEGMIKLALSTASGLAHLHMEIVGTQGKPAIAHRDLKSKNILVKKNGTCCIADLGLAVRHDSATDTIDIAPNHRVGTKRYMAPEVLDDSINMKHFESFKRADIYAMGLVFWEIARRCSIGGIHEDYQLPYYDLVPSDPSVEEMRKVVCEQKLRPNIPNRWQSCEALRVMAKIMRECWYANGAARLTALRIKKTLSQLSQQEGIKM
Description: 1×kinase buffer preparation: 40 mM Tris (pH 7.5), 20 mM MgCl2, 0.10% BSA, 1 mM DTT.
Compound preparation: The final detection concentration of the compound was 10 μM, which was configurated to a 100-fold concentration, i.e., 1 mM. In the second well of the 384-well plate, 100 μL of 100-fold compound was added, and 60 μL of 100% DMSO was added to other wells. 30 μL of compound from the second well was taken and added to the third well, and a 3-fold dilution was made in sequence, a total of 10 concentrations were diluted. 50 nL of compound was transferred to the reaction plate with echo.
Kinase reaction: Kinase was added to 1×kinase buffer to form a 2×enzyme solution. […] The polypeptide TGFbR1 (purchased from Signal Chem, catalog number T36-58) and ATP were added to 1×kinase buffer to form a 2×substrate solution. The final concentration of the substrate solution was 0.1 mg/mL peptide TGFbR1, 7 μM ATP. 2.5 μL of 2×enzyme solution was added to the 384-well reaction plate (there was already 50 nL of 100% DMSO dissolved compound), and 1×kinase buffer was added to the negative control well. The plate was incubated at room temperature for 10 minutes. 2.5 μL of 2× substrate solution was added to the 384-well reaction plate. The 384-well plate was covered and incubated at 30° C. for 1 hour. ADP-Glo reagent (purchased from Promege, catalog number v9102) was equilibrated to room temperature. 5 μL of ADP-Glo reagent was transferred to the reaction well of the 384-well plate to stop the reaction.
Detection of reaction results: 10 μL of kinase detection reagent was transferred to each reaction well, the plate was shaken for 1 minute and placed at room temperature for 30 minutes. The sample luminescence value was read at Synegy.
Curve fitting: The data of the luminescence reading from the Synegy program were copied. The value of the luminescence reading was converted into the percentage of inhibition by a formula (inhibition percent=(max-sample RLU)/(max-min)*100, wherein “min” was a […] reading of the control sample without enzyme; “max” was the […] reading of sample with DMSO as a control). The data were imported into MS Excel and GraphPad Prism was used for curve fitting. The ICso value was calculated.

Row | SMILES | IC50 [µM]
1 | Cc1cccc(-c2cccn2-c2ccc3ncc(C(N)=O)n3c2)n1 [Compound 1] | 0.013
2 | Cc1cccc(-c2cc3ccccc3n2-c2ccc3ncc(C(N)=O)n3c2)n1 [Compound 25] | 0.014
3 | Cc1cccc(-c2cnsc2-c2ccc3nccn3c2)n1 [Compound 16] | 0.165
4 | CNC(=O)c1cnc2ccc(-c3ncccc3-c3cccc(C)n3)cn12 [Compound 20] | 0.076
5 | Cc1cccc(-n2cccc2-c2ccc3ncc(C(=O)N(C)C)n3c2)n1 [Compound 5] | 0.105
6 | Cc1cccc(-n2cccc2-c2ccc3ncc(C(N)=O)n3c2)n1 [Compound 4] | 0.019
7 | Cc1cccc(-c2nccn2-c2ccc3ncc(C(N)=O)n3c2)n1 [Compound 8] | 0.007
8 | Cc1cccc(-c2cncn2-c2ccc3ncc(C(N)=O)n3c2)n1 [Compound 9] | 0.136
9 | Cc1csc(-c2ncccc2-c2ccc3ncc(C(N)=O)n3c2)n1 [Compound 23] | 0.021
10 | Cc1cccc(-c2cccnc2-c2ccc3ncc(C(N)=O)n3c2)n1 [Compound 19] | 0.075
11 | Cc1cccc(-c2ccsc2-c2ccc3ncc(C(N)=O)n3c2)n1 [Compound 17] | 0.0052
12 | Cc1cccc(-c2cc(C)sc2-c2ccc3ncc(C(N)=O)n3c2)n1 [Compound 18] | 0.0094
